The results in this text go back to paper PMC6689975, “Novel Cell Wall Antifungals Reveal a Special Synergistic Activity in pbr1 Mutants Resistant to the Glucan Synthesis Antifungals Papulacandins and Echinocandins” (Frontiers in Microbiology, 2019).

Structures are written as SMILES. In brackets after ≈: the same amount, converted by molar mass. Where two headings read alike, the source gives them in different places. Bounds are passed on as bounds.

Assay in all cases: microbe, parasite or virus in culture
Assay [1] concerns T1, S. pombe wild-type 972 h-.
T1 construct: 972 h-
The arrangement: species or system whole yeast cells; micro-culture broth dilution MIC in YES at 30 C, turbidity, complete growth inhibition. To be noted: Schizosaccharomyces pombe.

Assay [2] deals with T2, S. cerevisiae wild-type CVX12-3A.
T2 construct: CVX12-3A
Also noted: species or system whole yeast cells; micro-culture broth dilution MIC in YES at 30 C, turbidity, complete growth inhibition. To be noted: Saccharomyces cerevisiae.

The subject of assay [3] is T1, S. pombe wild-type 972 h-. Also noted: species or system whole yeast cells; macro tube broth dilution MIC in YEPD at 30 C, visual clearness of medium. To be noted: Schizosaccharomyces pombe, 48 h. As for the experimental part:
(§1) Standard YEPD (Yeast Extract, Peptone, Dextrose) ([Sherman, 1990]), YEPD+S (YEPD with 1.2M sorbitol), YES (Yeast Extract, Dextrose and Supplements of Adenine, Histidine, Leucine, Uracil and Lysine) ([Alfa et al., 1993]) and YES+S (YES with 1.2 M sorbitol) ([Ribas et al., 1991]; [Ishiguro et al., 1997]), media were used for determination of MIC values of the tested compounds. A stock solution of 10 mg/ml of each tested compounds was prepared in DMSO and serial dilutions in DMSO were prepared. The final concentration of DMSO was 2% in the YEPD medium. […] The serial dilutions of compounds were dispensed into test tubes with 1 ml of YEPD or YEPD+S to make final concentrations of 200, 100, 50, 25, 12.5, 6.26, 3.125, 1.6, 0.8 and 0.4 μg/ml. The tested yeast strains were previously grown in YEPD, YEPD+S, YES or YES+S agar plates at 30°C for 48 h. For inoculation of YEPD or YEPD+S macro test tubes a suspension of tested fungus was produced with 10^5 cfu/ml (cfu - colony forming unit). 10 μl of suspension was used for inoculation of each tube. After 48 h incubation at 30°C the tubes were checked. The MIC value is the lowest concentration of the tested compound that could inhibit the fungal growth and the medium remained clear. From each tube 10 μl culture was plated on YEPD agar medium to check the contamination. The MIC tests were carried out in three parallels. The screening of the first generation of isochromanones was carried out in YEPD and YEPD+S media (1E-16E). The fungal strains analyzed are: C. albicans wild-type ATCC 26555, SC5314 and ATCC 90028, S. cerevisiae wild-type CVX12-3A and pbr1-1 mutant, and S. pombe wild-type (972h^–), pbr1-8 mutant and pbr1-6 mutant. The bold numbers in Tables 4–6 indicate the more efficient compounds. […] The weak or moderate efficacy against the C. albicans wild-type strains was observed by some substances (3E, 4Z, 5Z, 10E, 15, and 16E). The efficiency toward the S. pombe pbr1-6 mutant strain was the highest inhibitory activity, except 7E, 11E, 12 and 14E. […] As regards the other S. pombe pbr1-8 mutant strain, the antifungal activity of the tested compounds was slightly lower, but the substances with the best activity are partly identical to the best compounds mentioned with pbr1-6, (i.e., 1E, 3E, 4Z, 5Z).

In assay [4] the test system is T2, S. cerevisiae wild-type CVX12-3A. Also noted: species or system whole yeast cells; macro tube broth dilution MIC in YEPD at 30 C, visual clearness of medium. To be noted: Saccharomyces cerevisiae, 48 h. As for the experimental part:
as §1

For the compound `CC[C@H](C)C[C@H](C)CCCCCCCCC(=O)N[C@H]1C[C@@H](O)[C@@H](NCCN)NC(=O)[C@@H]2[C@@H](O)CCN2C(=O)[C@H]([C@H](O)CCN)NC(=O)[C@H]([C@H](O)[C@@H](O)c2ccc(O)cc2)NC(=O)[C@@H]2C[C@@H](O)CN2C(=O)[C@H]([C@@H](C)O)NC1=O` [caspofungin], the MIC in assay [1] (read-out: MIC) is 10 µg/mL (≈ 9.15 µM); in assay [2] (read-out: MIC) it was 0.5 µg/mL (≈ 0.457 µM); in assay [3] (read-out: MIC), 5 µg/mL (≈ 4.57 µM); in assay [4] (read-out: MIC), 1 µg/mL (≈ 0.915 µM).

As for `O=c1oc2ccc3ccccc3c2cc1-c1ccccc1CO` [compound 12], the MIC is > 200 µg/mL in assay [1] (YES medium), > 200 µg/mL in assay [2] (YES medium), 200 µg/mL (≈ 662 µM) in assay [3] (YEPD medium) and 100 µg/mL (≈ 331 µM) in assay [4] (YEPD medium).

With `O=c1oc2ccccc2cc1-c1ccccc1CO` [compound 15], the MIC in assay [1] (YES medium) was > 200 µg/mL; in assay [2] (YES medium), > 200 µg/mL; in assay [3] (YEPD medium) it was 100 µg/mL (≈ 396 µM); in assay [4] (YEPD medium), 50 µg/mL (≈ 198 µM).
